Laboratory results: US20240174659A1, “COMPOUNDS AND METHODS FOR YAP/TEAD MODULATION AND INDICATIONS THEREFOR” (Opna Bio SA, priority 2021, published 2024)

System: TEAD-dependent transcription
Test: Inhibitor activity against TEAD-dependent transcription in a cell-based reporter assay (MSTO-211H+12XGTIIC luciferase)
Settings: Homo sapiens; MSTO-211H+12XGTIIC cells, 24 hours incubation, luciferase luminescence normalized to cell viability fluorescence, geometric mean; read-out: MSTO-211H GMean IC50 (uM) Cell Assay Reporter Cell Variant: TEAD
Excerpt: Determine Inhibitor Activity Against TEAD-Dependent Transcription in a Cell-Based Reporter Assay
The human mesothelioma cell line MSTO-211H was stably transfected with a pGL4.21 plasmid containing a synthetic promoter with 12 copies of the GTIIC TEAD response element that drives the expression of a luciferase reporter gene^1 using Lipofectamine transfection reagent (Thermo Fisher). Transfected cells were selected using puromycin and single cell clones expressing this construct (referred to as MSTO-211H+12XGTIIC) were generated by limiting dilution. MSTO-211H cells was characterized by genetic alterations in key components of the Hippo pathway^2, resulting in up-regulation of YAP/TEAD-mediated transcription. […] To evaluate TEAD inhibitors, the MSTO-211H+12XGTIIC cell line was seeded in a 96-well plate in 50 μL of culture media at 1×10^4 cells per well and incubated at 37° C. overnight. Serial dilutions of compounds (in total volume of 50 μL of culture media) were added to the cells and incubated at 37° C. for 24 hours. Each plate included cells treated with DMSO as high controls and cells treated with 20 μM of the reference compound K-975 (a known TEAD inhibitor)^3 as low controls. Cell viability was assayed by the addition of 25 μL of CellTiter-Fluor reagent (Promega) followed by a 30-minute incubation at 37° C. and quantification of the fluorescence signal (Ex400/Em505). Subsequently, luciferase expression was assayed by the addition of 25 μL of ONE-Glo reagent (Promega) followed by a 10-minute incubation at room temperature and quantification of the luminescence signal. The luminescence signal was normalized to the fluorescence signal to correct for any loss in cell viability over the 24-hour compound incubation period. The percentage of inhibition of normalized luminescence signal, indicative of compound-mediated inhibition of TEAD-dependent transcription, at individual compound concentrations relative to high and low controls was calculated. The data were analyzed by using nonlinear regression to generate IC50 values for individual compounds.

| Structure (SMILES) | IC50 |
| --- | --- |
| C=CC(=O)N1CCc2ccc(OCc3ccc(F)cc3)cc2C1 [P-0001, 1-(7-((4-fluorobenzyl)oxy)-3,4-dihydroisoquinolin-2(1H)-yl)prop-2-en-1-one] | 0.001 to 0.5 µM |
| C=CC(=O)N1CCc2ccc(OCc3ccccc3)cc2C1 [P-0002, 1-(7-(benzyloxy)-3,4-dihydroisoquinolin-2(1H)-yl)prop-2-en-1-one] | 0.001 to 0.5 µM |
| C=CC(=O)N1CCc2cccc(Nc3cccc(F)c3)c2C1 [P-0003, 1-(8-((3-fluorophenyl)amino)-3,4-dihydroisoquinolin-2(1H)-yl)prop-2-en-1-one] | 0.5 to 20 µM |
| C=CC(=O)N1CCc2ccc(Nc3cccc(F)c3)cc2C1 [P-0004, 1-(7-((3-fluorophenyl)amino)-3,4-dihydroisoquinolin-2(1H)-yl)prop-2-en-1-one] | 0.001 to 0.5 µM |
| C=CC(=O)N1CCc2cccc(Oc3cccc(F)c3)c2C1 [P-0005, 1-(8-(3-fluorophenoxy)-3,4-dihydroisoquinolin-2(1H)-yl)prop-2-en-1-one] | 0.001 to 0.5 µM |
| C=CC(=O)N1CCc2ccc(Oc3cccc(F)c3)cc2C1 [P-0006, 1-(7-(3-fluorophenoxy)-3,4-dihydroisoquinolin-2(1H)-yl)prop-2-en-1-one] | 0.001 to 0.5 µM |
| C=CC(=O)N1CCc2ccc(Oc3ccccc3)cc2C1 [P-0007, 1-(7-phenoxy-3,4-dihydroisoquinolin-2(1H)-yl)prop-2-en-1-one] | 0.001 to 0.5 µM |
| C=CC(=O)N1CCc2ccc(Oc3ccc(F)cc3F)cc2C1 [P-0008, 1-(7-(2,4-difluorophenoxy)-3,4-dihydroisoquinolin-2(1H)-yl)prop-2-en-1-one] | 0.001 to 0.5 µM |
| C=CC(=O)N1CCc2ccc(OC3CCOCC3)cc2C1 [P-0009, 1-(7-((tetrahydro-2H-pyran-4-yl)oxy)-3,4-dihydroisoquinolin-2(1H)-yl)prop-2-en-1-one] | 0.001 to 0.5 µM |
| C=CC(=O)N1CCc2ccc(Nc3ccccc3)cc2C1 [P-0010, 1-(7-(phenylamino)-3,4-dihydroisoquinolin-2(1H)-yl)prop-2-en-1-one] | 0.001 to 0.5 µM |
| C=CC(=O)N1CCc2ccc(Nc3ccnc(C(F)(F)F)c3)cc2C1 [P-0011, 1-(7-((2-(trifluoromethyl)pyridin-4-yl)amino)-3,4-dihydroisoquinolin-2(1H)-yl)prop-2-en-1-one] | 0.5 to 20 µM |
| C=CC(=O)N1CCc2ccc(Nc3ccc(C(F)(F)F)nc3)cc2C1 [P-0012, 1-(7-((6-(trifluoromethyl)pyridin-3-yl)amino)-3,4-dihydroisoquinolin-2(1H)-yl)prop-2-en-1-one] | 0.5 to 20 µM |
| C=CC(=O)N1CCc2ccc(Oc3ccc(F)cc3)cc2C1 [P-0013, 1-(7-(4-fluorophenoxy)-3,4-dihydroisoquinolin-2(1H)-yl)prop-2-en-1-one] | 0.001 to 0.5 µM |
| C=CC(=O)N1CCc2ccc(Oc3cccc(Cl)c3)cc2C1 [P-0014, 1-(7-(3-chlorophenoxy)-3,4-dihydroisoquinolin-2(1H)-yl)prop-2-en-1-one] | 0.001 to 0.5 µM |
| C=CC(=O)N1CCc2ccc(Oc3ccc(Cl)cc3)cc2C1 [P-0015, 1-(7-(4-chlorophenoxy)-3,4-dihydroisoquinolin-2(1H)-yl)prop-2-en-1-one] | 0.001 to 0.5 µM |
| C=CC(=O)N1CCc2ccc(Oc3ccc(F)c(F)c3)cc2C1 [P-0016, 1-(7-(3,4-difluorophenoxy)-3,4-dihydroisoquinolin-2(1H)-yl)prop-2-en-1-one] | 0.001 to 0.5 µM |
| C=CC(=O)N1CCc2ccc(Oc3cccc(C(F)(F)F)c3)cc2C1 [P-0017, 1-(7-(3-(trifluoromethyl)phenoxy)-3,4-dihydroisoquinolin-2(1H)-yl)prop-2-en-1-one] | 0.001 to 0.5 µM |
| C=CC(=O)N1CCc2ccc(Oc3ccc(C(F)(F)F)cc3)cc2C1 [P-0018, 1-(7-(4-(trifluoromethyl)phenoxy)-3,4-dihydroisoquinolin-2(1H)-yl)prop-2-en-1-one] | 0.001 to 0.5 µM |
| C=CC(=O)N1CCc2ccc(Oc3cccnc3)cc2C1 [P-019, 1-(7-(pyridin-3-yloxy)-3,4-dihydroisoquinolin-2(1H)-yl)prop-2-en-1-one] | 0.001 to 0.5 µM |
| C=CC(=O)N1CCc2ccc(OC3CC(F)(F)C3)cc2C1 [P-0020, 1-(7-(3,3-difluorocyclobutoxy)-3,4-dihydroisoquinolin-2(1H)-yl)prop-2-en-1-one] | 0.001 to 0.5 µM |
| C=CC(=O)N1CCc2ccc(OC34CC5CC(CC(C5)C3)C4)cc2C1 [P-0021, 1-(7-(((3R,5R)-adamantan-1-yl)oxy)-3,4-dihydroisoquinolin-2(1H)-yl)prop-2-en-1-one] | 0.001 to 0.5 µM |

| Structure (SMILES) | IC50 |
| --- | --- |
| C=CC(=O)N1CCc2ccc(Nc3ccccc3F)cc2C1 [P-0022, 1-(7-((2-fluorophenyl)amino)-3,4-dihydroisoquinolin-2(1H)-yl)prop-2-en-1-one] | 0.001 to 0.5 µM |
| C=CC(=O)N1CCc2ccc(Nc3ccc(F)cc3)cc2C1 [P-0023, 1-(7-((4-fluorophenyl)amino)-3,4-dihydroisoquinolin-2(1H)-yl)prop-2-en-1-one] | 0.001 to 0.5 µM |
| C=CC(=O)N1CCc2ccc(Nc3cccc(Cl)c3)cc2C1 [P-0024, 1-(7-((3-chlorophenyl)amino)-3,4-dihydroisoquinolin-2(1H)-yl)prop-2-en-1-one] | 0.001 to 0.5 µM |
| C=CC(=O)N1CCc2ccc(Nc3cccc(C(F)(F)F)c3)cc2C1 [P-0025, 1-(7-((3-(trifluoromethyl)phenyl)amino) -3,4-dihydroisoquinolin-2(1H)-yl)prop-2-en-1-one] | 0.001 to 0.5 µM |
| C=CC(=O)N1CCc2ccc(N(C)c3ccccc3)cc2C1 [P-0026, 1-(7-(methyl(phenyl)amino)-3,4-dihydroisoquinolin-2(1H)-yl)prop-2-en-1-one] | 0.001 to 0.5 µM |
| C=CC(=O)N1CCc2ccc(Oc3ccc(C(F)(F)F)nc3)cc2C1 [P-0027, 1-(7-((6-(trifluoromethyl)pyridin-3-yl)oxy)-3,4-dihydroisoquinolin-2(1H)-yl)prop-2-en-1-one] | 0.001 to 0.5 µM |
| C=CC(=O)N1CCc2ccc(OC3CCN(S(C)(=O)=O)CC3)cc2C1 [P-0028, 1-(7-((1-(methylsulfonyl)piperidin-4-yl)oxy)-3,4-dihydroisoquinolin-2(1H)-yl)prop-2-en-1-one] | 0.5 to 20 µM |
| C=CC(=O)N1CCc2ccc(NC3CCC(F)(F)CC3)cc2C1 [P-0029, 1-(7-((4,4-difluorocyclohexyl)amino)-3,4-dihydroisoquinolin-2(1H)-yl)prop-2-en-1-one] | 0.001 to 0.5 µM |
| C=CC(=O)N1CCc2cc(F)c(Oc3ccccc3)cc2C1 [P-0030, 1-(6-fluoro-7-phenoxy-3,4-dihydroisoquinolin-2(1H)-yl)prop-2-en-1-one] | 0.001 to 0.5 µM |
| C=CC(=O)N1CCc2cc(F)c(Oc3cccc(F)c3)cc2C1 [P-0031, 1-(6-fluoro-7-(3-fluorophenoxy)-3,4-dihydroisoquinolin-2(1H)-yl)prop-2-en-1-one] | 0.001 to 0.5 µM |
| C=CC(=O)N1CCc2cc(F)c(Oc3ccc(F)cc3)cc2C1 [P-0032, 1-(6-fluoro-7-(4-fluorophenoxy)-3,4-dihydroisoquinolin-2(1H)-yl)prop-2-en-1-one] | 0.001 to 0.5 µM |
| C=CC(=O)N1CCc2ccc(Cc3ccccc3)cc2C1 [P-0033, 1-(7-benzyl-3,4-dihydroisoquinolin-2(1H)-yl)prop-2-en-1-one] | 0.001 to 0.5 µM |
| C=CC(=O)N1CCc2ccc(Cc3cccc(F)c3)cc2C1 [P-0034, 1-(7-(3-fluorobenzyl)-3,4-dihydroisoquinolin-2(1H)-yl)prop-2-en-1-one] | 0.001 to 0.5 µM |
| C=CC(=O)N1CCc2ccc(Cc3ccc(F)cc3)cc2C1 [P-0035, 1-(7-(4-fluorobenzyl)-3,4-dihydroisoquinolin-2(1H)-yl)prop-2-en-1-one] | 0.001 to 0.5 µM |
| C=CC(=O)N1CCc2ccc(Oc3ccc(C)nc3)cc2C1 [P-0036, 1-(7-((6-methylpyridin-3-yl)oxy)-3,4-dihydroisoquinolin-2(1H)-yl)prop-2-en-1-one] | 0.001 to 0.5 µM |
| C=C(F)C(=O)N1CCc2ccc(Oc3cccc(F)c3)cc2C1 [P-0037, 2-fluoro-1-(7-(3-fluorophenoxy)-3,4-dihydroisoquinolin-2(1H)-yl)prop-2-en-1-one] | 0.001 to 0.5 µM |
| C=C(CO)C(=O)N1CCc2ccc(Oc3cccc(F)c3)cc2C1 [P-0038, 1-(7-(3-fluorophenoxy)-3,4-dihydroisoquinolin-2(1H)-yl)-2-(hydroxymethyl)prop-2-en-1-one] | 0.001 to 0.5 µM |
| O=C(/C=C/CN1CCOCC1)N1CCc2ccc(Oc3cccc(F)c3)cc2C1 [P-0039, (E)-1-(7-(3-fluorophenoxy)-3,4-dihydroisoquinolin-2(1H)-yl)-4-morpholinobut-2-en-1-one] | > 20 µM |
| CN1CCN(C/C=C/C(=O)N2CCc3ccc(Oc4cccc(F)c4)cc3C2)CC1 [P-0040, (E)-1-(7-(3-fluorophenoxy)-3,4-dihydroisoquinolin-2(1H)-yl)-4-(4-methylpiperazin-1-yl)but-2-en-1-one] | > 20 µM |
| C=CC(=O)N1CCc2cc(C)c(Oc3ccccc3)cc2C1 [P-0041, 1-(6-methyl-7-phenoxy-3,4-dihydroisoquinolin-2(1H)-yl)prop-2-en-1-one] | 0.001 to 0.5 µM |
